Literature values in US9456982B2, “Solid formulations of niacin to counteract cold extremities” (BE-WARM LLC, priority 2014, dated 2016).

Conditions: therapeutic niacin doses; sometimes longer

For O=C(O)c1cccnc1 [niacin, pyridine-3-carboxylic acid], the “duration of SVFS flush” value is given as 15 to 30 min.
